Source: ChEMBL document CHEMBL6087484, “Discovery of Novel Small-Molecule Inhibitors Disrupting the MTDH-SND1 Protein-Protein Interaction” (J Med Chem, 2025)
pIC50: −log10 of the molar value.

Test system: MCF7
Experiment: Anti-proliferative activity against human MCF7 cells assessed as cell viability measured after 72 hrs by CCK8 assay
Conditions: MCF7, 72 h

**Q.** How did the pIC50 turn out when `O=S(=O)(Nc1cccc2cccnc12)c1cccc2cccnc12` was run?
**A.** The pIC50 was 6.05.

**Q.** With `COc1cc(NS(=O)(=O)c2cccc3cccnc23)c2ncccc2c1` as the molecule, how does the pIC50 read?
**A.** Its pIC50 is 5.63.

**Q.** With `O=S(=O)(Nc1cc(Cl)cc2cccnc12)c1cccc2cccnc12` as the molecule, how does the pIC50 read?
**A.** The pIC50 was 5.93.

**Q.** With `O=S(=O)(Nc1cccc2cc(Br)cnc12)c1cccc2cccnc12` as the molecule, how does the pIC50 read?
**A.** The pIC50 was 5.36.

**Q.** With `Cc1ccc2cccc(NS(=O)(=O)c3cccc4cccnc34)c2n1` as the molecule, how does the pIC50 read?
**A.** Its pIC50 is < 5.00.

**Q.** `COc1ccc(Cl)cc1S(=O)(=O)Nc1cccn2ncnc12` was tested. Which pIC50 did it give?
**A.** Its pIC50 is < 5.00.

**Q.** `CC(C)N1CCN(c2ccc(NS(=O)(=O)c3cccc4cccnc34)c3ncccc23)CC1` was tested. Which pIC50 did it give?
**A.** Its pIC50 is 5.19.

**Q.** With `O=S(=O)(Nc1cccc2cc(Nc3ccccc3)cnc12)c1cccc2cccnc12` as the molecule, how does the pIC50 read?
**A.** The pIC50 was < 5.00.

**Q.** With `O=S(=O)(Nc1ccc(Cl)c2cccnc12)c1cccc2cccnc12` as the molecule, how does the pIC50 read?
**A.** Its pIC50 is 5.54.

**Q.** With `O=S(=O)(Nc1ccc(Br)c2cccnc12)c1cccc2cccnc12` as the molecule, how does the pIC50 read?
**A.** The pIC50 was 5.66.

**Q.** With `O=S(=O)(Nc1cc(Br)cc2cccnc12)c1cccc2cccnc12` as the molecule, how does the pIC50 read?
**A.** Its pIC50 is 5.68.
